In DBAASP:
Values after ≈ are worked out from the molar mass of the structure shown. Values joined by “and” are separate entries in the source; they are usually repeats but may differ in a detail not shown here. Equal entries are not always repeated. Blank lines part the entries; values can stand above or below the compound they belong to.

Legend:
Assay in all cases: ≥ marks a high value that may be exact or a test limit, other limits are often not marked, values filed in µg/mL are converted to µM
Streptococcus mutans = system: Streptococcus mutans
[1] = system: Shigella dysenteriae CMCC 51302
[2] = system: Salmonella typhimurium CMCC 50013
[3] = system: Staphylococcus aureus ATCC 29213
[4] = system: Listeria monocytogenes CMCC 54002
[5] = system: Escherichia coli ATCC 25922
Staphylococcus aureus = system: Staphylococcus aureus
Escherichia coli W160-37 = system: Escherichia coli W160-37
Escherichia coli = system: Escherichia coli
[6] = system: Staphylococcus aureus ATCC 25923
[7] = system: Candida albicans ATCC 64550
[8] = system: Candida albicans ATCC 37092
[9] = system: Streptococcus pyogenes ATCC 19615
[10] = system: Salmonella enterica subsp. enterica serovar Enteritidis
[11] = system: Enterococcus faecalis ATCC 29212
[12] = system: Candida parapsilosis ATCC 22019
[13] = system: Candida albicans ATCC 90028
Saccharomyces cerevisiae = system: Saccharomyces cerevisiae
[14] = system: Staphylococcus aureus ST1065
[15] = system: Acinetobacter baumannii ATCC 19606
Listeria ivanovii = system: Listeria ivanovii
Escherichia coli ML-35p = system: Escherichia coli ML-35p
[16] = system: Pseudomonas aeruginosa ATCC 27853
[17] = system: Klebsiella pneumoniae ATCC 13883
[18] = system: Erwinia amylovora PMV 6076
[19] = system: Pseudomonas syringae pv. syringae EPS 94
[20] = system: Staphylococcus epidermidis
Candida albicans = system: Candida albicans
[21] = system: Pseudomonas aeruginosa H103
[22] = system: Pseudomonas aeruginosa ATCC 9027
[23] = system: Staphylococcus aureus USA 300
[24] = system: Staphylococcus aureus USA 100
[25] = system: Salmonella enterica serovar Typhimurium
Escherichia coli UB1005 = system: Escherichia coli UB1005

MIC (Staphylococcus aureus): 13 µM (≈ 20.8 µg/mL) | MIC (Escherichia coli W160-37): 24 µM (≈ 38.4 µg/mL)
SMILES: CC[C@H](C)[C@H](NC(=O)[C@H](Cc1c[nH]c2ccccc12)NC(=O)[C@H](CCCCN)NC(=O)[C@H](CCCCN)NC(=O)[C@H](CC(C)C)NC(=O)[C@H](Cc1ccccc1)NC(=O)[C@H](CCCCN)NC(=O)[C@H](CCCCN)NC(=O)[C@H](CC(C)C)NC(=O)[C@H](CC(C)C)NC(=O)[C@H](CCCCN)NC(=O)[C@@H]1CCCN1)C(=O)NCC(=O)O [PKLLKKFLKKWIG]

MIC [9]: ≥ 50 µM | MIC [10]: ≥ 100 µM | MIC [11]: > 200 µM | MIC [12]: ≥ 50 µM | MIC [5]: 30 µM (≈ 34.8 µg/mL) | MIC [13]: 12 µM (≈ 13.9 µg/mL) | MIC (Saccharomyces cerevisiae): 12 µM (≈ 13.9 µg/mL) | MIC [6]: 40 µM (≈ 46.5 µg/mL) | MIC [14]: ≥ 40 µM | MIC [15]: 50 µM (≈ 58.1 µg/mL) | MIC (Listeria ivanovii): 12 µM (≈ 13.9 µg/mL) | MIC (Escherichia coli ML-35p): 25 µM (≈ 29 µg/mL) | MIC [16]: 25 µM (≈ 29 µg/mL) | MIC [17]: ≥ 100 µM
SMILES: CC[C@H](C)[C@H](NC(=O)CNC(=O)[C@@H](N)CCCCN)C(=O)N[C@H](C(=O)NCC(=O)N[C@@H](CCSC)C(=O)N[C@@H](CC(C)C)C(=O)NCC(=O)N[C@@H](CCCCN)C(=O)N[C@@H](CC(C)C)C(=O)N[C@@H](Cc1ccccc1)C(N)=O)C(C)C [KGIVGMLGKLF]

MIC [9]: ≥ 100 µM | MIC [10]: ≥ 200 µM | MIC [11]: > 200 µM | MIC [12]: ≥ 200 µM | MIC [5]: > 200 µM | MIC [13]: ≥ 200 µM | MIC (Saccharomyces cerevisiae): ≥ 200 µM | MIC [6]: > 200 µM | MIC [14]: ≥ 200 µM | MIC [15]: > 200 µM | MIC (Listeria ivanovii): ≥ 200 µM | MIC (Escherichia coli ML-35p): ≥ 200 µM | MIC [16]: > 200 µM | MIC [17]: ≥ 200 µM
SMILES: CC[C@H](C)[C@H](NC(=O)CNC(=O)[C@H](CCCCN)NC(=O)[C@H](C)NC(=O)[C@@H](N)Cc1ccccc1)C(=O)N[C@@H](C)C(=O)NCC(=O)N[C@@H](CCSC)C(=O)N[C@@H](C)C(=O)NCC(=O)N[C@@H](CCCCN)C(=O)N[C@@H](CC(C)C)C(=O)N[C@@H](Cc1ccccc1)C(N)=O [FAKGIAGMAGKLF]

MIC (Staphylococcus aureus): 3.1 µM (≈ 5 µg/mL) | MIC (Escherichia coli W160-37): 12.4 µM (≈ 20 µg/mL)
SMILES: CC[C@H](C)[C@H](N)C(=O)N[C@@H](CC(C)C)C(=O)N1CCC[C@H]1C(=O)N[C@@H](CC(C)C)C(=O)N[C@@H](CCCCN)C(=O)N[C@@H](CC(C)C)C(=O)N1CCC[C@H]1C(=O)N[C@@H](CC(C)C)C(=O)N[C@@H](CC(C)C)C(=O)N1CCC[C@H]1C(=O)N[C@@H](Cc1c[nH]c2ccccc12)C(=O)N[C@@H](CCCN=C(N)N)C(=O)N[C@@H](CCCN=C(N)N)C(N)=O [ILPLKLPLLPWRR]

MIC [20]: 3.38 µM (≈ 4 µg/mL) | MIC (Candida albicans): 13.5 µM (≈ 16 µg/mL) | MIC [21]: 13.5 µM (≈ 16 µg/mL) | MIC [11]: 6.75 µM (≈ 7.99 µg/mL) | MIC [22]: 25 µM (≈ 29.6 µg/mL) | MIC [23]: 12.5 µM (≈ 14.8 µg/mL) | MIC [13]: ≥ 100 µM | MIC [6]: 3.38 µM (≈ 4 µg/mL) | MIC [24]: 12.5 µM (≈ 14.8 µg/mL) | MIC [25]: 13.5 µM (≈ 16 µg/mL) | MIC (Escherichia coli UB1005): 3.38 µM (≈ 4 µg/mL)
SMILES: CC[C@H](C)[C@H](NC(=O)[C@@H](NC(=O)[C@H](Cc1c[nH]c2ccccc12)NC(=O)[C@@H](NC(=O)[C@@H](N)CCCN=C(N)N)[C@@H](C)CC)C(C)C)C(=O)N[C@@H](CCCN=C(N)N)C(=O)N[C@@H](Cc1c[nH]c2ccccc12)C(=O)N[C@@H](CCCN=C(N)N)C(N)=O [RIWVIRWR]

More lines, now with the values behind:

SMILES: CC(C)C[C@H](NC(=O)CN)C(=O)N[C@@H](CCCN=C(N)N)C(=O)N[C@@H](CCCN=C(N)N)C(=O)N[C@@H](C)C(=O)N[C@@H](CC(C)C)C(=O)N[C@@H](CC(C)C)C(=O)N[C@@H](CCCN=C(N)N)C(=O)N[C@@H](CC(C)C)C(=O)N[C@@H](CC(C)C)C(=O)N[C@@H](CCCN=C(N)N)C(=O)N[C@@H](CO)C(=O)N[C@@H](CC(C)C)C(=O)N[C@@H](CCCN=C(N)N)C(=O)N[C@@H](CCCN=C(N)N)C(=O)N[C@@H](CC(C)C)C(=O)N[C@@H](CC(C)C)C(=O)N[C@@H](CC(C)C)C(=O)N[C@@H](CCCN=C(N)N)C(=O)N[C@@H](C)C(=O)O [GLRRALLRLLRSLRRLLLRA]
MIC (Streptococcus mutans): 8 µM (≈ 19.3 µg/mL) | MIC [1]: 8 µM (≈ 19.3 µg/mL) | MIC [2]: 4 µM (≈ 9.66 µg/mL) | MIC [3]: 32 µM (≈ 77.3 µg/mL) | MIC [4]: 16 µM (≈ 38.7 µg/mL) | MIC [5]: 8 µM (≈ 19.3 µg/mL)

SMILES: NCCCC[C@H](NC(=O)[C@H](CCCCN)NC(=O)[C@H](CCCN=C(N)N)NC(=O)[C@H](CCCN=C(N)N)NC(=O)[C@H](Cc1c[nH]c2ccccc12)NC(=O)[C@H](Cc1c[nH]c2ccccc12)NC(=O)[C@H](CCCN=C(N)N)NC(=O)[C@H](CCCCN)NC(=O)[C@H](Cc1c[nH]c2ccccc12)NC(=O)[C@@H](N)CCCN=C(N)N)C(N)=O [RWKRWWRRKK]
MIC (Escherichia coli): 3 µM (≈ 4.75 µg/mL) | MIC [6]: 3 µM and 6 µM | MIC [7]: ≥ 100 µM

SMILES: CC[C@H](C)[C@H](NC(=O)[C@@H]1CCCN1C(=O)[C@H](CCCN=C(N)N)NC(=O)[C@@H]1CCCN1C(=O)CNC(=O)[C@@H]1CCCN1C(=O)[C@H](CCCN=C(N)N)NC(=O)[C@@H]1CCCN1C(=O)[C@H](Cc1ccccc1)NC(=O)[C@@H]1CCCN1C(=O)[C@H](CC(C)C)NC(=O)[C@@H]1CCCN1C(=O)[C@H](CCCN=C(N)N)NC(=O)[C@@H]1CCCN1C(=O)[C@@H](NC(=O)[C@@H]1CCCN1C(=O)[C@H](CCCN=C(N)N)NC(=O)[C@@H]1CCCN1C(=O)CNC(=O)[C@@H]1CCCN1C(=O)[C@H](CCCN=C(N)N)NC(=O)[C@@H]1CCCN1C(=O)[C@H](Cc1ccccc1)NC(=O)[C@@H]1CCCN1C(=O)[C@H](CC(C)C)NC(=O)[C@@H]1CCCN1)[C@@H](C)CC)C(=O)N1CCC[C@H]1C(=O)N[C@@H](CCCN=C(N)N)C(=O)N1CCC[C@H]1C(=O)O [PLPFPRPGPRPIPRPLPFPRPGPRPIPRP]
MIC [8]: 0.5 µM (≈ 1.64 µg/mL) | MIC [3]: 30.5 µM (≈ 99.8 µg/mL) | MIC [5]: 5.84 µM (≈ 19.1 µg/mL)

SMILES: CC[C@H](C)[C@H](NC(=O)[C@H](CCCCN)NC(=O)[C@H](CCCCN)NC(=O)[C@H](Cc1ccccc1)NC(=O)[C@H](CC(C)C)NC(=O)[C@H](CCCCN)NC(=O)[C@H](CCCCN)NC(=O)[C@H](C)NC(=O)[C@@H]1CCCN1C(=O)CNC(=O)[C@H](C)NC(=O)[C@H](CC(C)C)NC(=O)[C@H](Cc1ccc(O)cc1)NC(=O)[C@H](CCCCN)NC(=O)[C@H](CC(C)C)NC(=O)[C@@H](NC(=O)[C@H](CCCCN)NC(=O)[C@H](CCCCN)NC(=O)[C@H](Cc1ccccc1)NC(=O)[C@H](CC(C)C)NC(=O)[C@H](CCCCN)NC(=O)[C@@H](N)CCCCN)[C@@H](C)CC)C(=O)N[C@@H](CC(C)C)C(=O)N[C@@H](CCCCN)C(=O)N[C@@H](Cc1ccc(O)cc1)C(=O)N[C@@H](CC(C)C)C(=O)O [KKLFKKILKYLAGPAKKLFKKILKYL]
MIC [18]: 3.54 µM (≈ 11 µg/mL) | MIC [19]: 3.54 µM (≈ 11 µg/mL)

SMILES: CC[C@H](C)[C@H](NC(=O)[C@H](CCCN=C(N)N)NC(=O)[C@@H](N)CCCN=C(N)N)C(=O)N[C@@H](CCCN=C(N)N)C(=O)N1CCC[C@H]1C(=O)N[C@@H](CCCN=C(N)N)C(=O)N1CCC[C@H]1C(=O)N1CCC[C@H]1C(=O)N[C@@H](CCCN=C(N)N)C(=O)N[C@@H](CC(C)C)C(=O)N1CCC[C@H]1C(=O)N[C@@H](CCCN=C(N)N)C(=O)N1CCC[C@H]1C(=O)N[C@@H](CCCN=C(N)N)C(=O)N1CCC[C@H]1C(=O)N[C@@H](CCCN=C(N)N)C(=O)N1CCC[C@H]1C(=O)O [RRIRPRPPRLPRPRPRP]
MIC [8]: 1.05 µM (≈ 2.28 µg/mL) | MIC [3]: 0.81 µM (≈ 1.76 µg/mL) | MIC [5]: 0.89 µM (≈ 1.93 µg/mL)
